For one assay, the target named is T1, human LTA4 hydrolase (Homo sapiens, UniProt P09960).
T1 sequence (P09960 1-611): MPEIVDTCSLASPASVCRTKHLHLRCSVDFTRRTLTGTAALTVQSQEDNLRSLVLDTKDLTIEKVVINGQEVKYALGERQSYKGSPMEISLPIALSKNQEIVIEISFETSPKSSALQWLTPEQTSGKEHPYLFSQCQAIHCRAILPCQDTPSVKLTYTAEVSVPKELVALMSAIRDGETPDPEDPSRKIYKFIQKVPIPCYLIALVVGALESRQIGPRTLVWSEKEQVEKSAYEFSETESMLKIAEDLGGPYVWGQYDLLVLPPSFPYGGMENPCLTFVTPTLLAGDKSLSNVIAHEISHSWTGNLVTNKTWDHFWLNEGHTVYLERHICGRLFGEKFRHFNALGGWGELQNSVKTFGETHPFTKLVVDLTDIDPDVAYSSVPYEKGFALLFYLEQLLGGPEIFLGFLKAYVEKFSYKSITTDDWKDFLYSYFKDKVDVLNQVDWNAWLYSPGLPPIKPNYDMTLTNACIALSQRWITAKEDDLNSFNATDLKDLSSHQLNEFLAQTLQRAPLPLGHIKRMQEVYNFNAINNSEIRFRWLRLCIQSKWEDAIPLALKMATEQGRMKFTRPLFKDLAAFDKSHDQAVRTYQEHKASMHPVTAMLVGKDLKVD
The experiment in a line: LTA4H Enzyme assay (cleavage of Arg-AMC, fluorescence). It counts as biochemical. In short, it runs like this:
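Aminomethylcoumarin release measured fluorimetrically (380/460 nm) after 1 h at room temperature. Reaction: 1 nM final enzyme, 50 μM final Arg-AMC and compound in Tris-HCl pH 7.5 with 100 mM KCl and 0.5% BSA.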

For assay [1], the system named is synthesis of LTB4 in human whole blood. The assay is described as follows: human whole blood (HWB) assay, LTB4 production inhibition after calcimycin stimulation. It counts as cell-based. The following applies: heparinized human whole blood, calcimycin 20 μM, plasma LTB4 by HTRF. In short, it runs like this:
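Plasma LTB4, quantified by HTRF immunoassay, is the read-out after calcimycin challenge (20 μM final, 30 min, 37 °C) of heparinized whole blood that had been pretreated with compound for 15 min at 37 °C; values given as IC50.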

Setting [2] is: LTA4H Enzyme 1 nM, Arg-AMC substrate 50 μM, room temperature 1 h, fluorescence, read-out: IC50 values of LTA4H Enzyme assay.

Read-outs that look alike come from different tables or passages of the source.

We go through ten compounds from patent US8946203B2, “Benzodioxane inhibitors of leukotriene production” (Boehringer Ingelheim International GmbH, priority 2012, dated 2015).

The term IC50 denotes the concentration that gives 50% inhibition. Turning to `O=C(NC[C@@H]1CCCO1)C1CCN(Cc2ccc([C@H]3COc4cccnc4O3)cc2)CC1` [Example 287, 1-[(S)-4-(2,3-Dihydro-[1,4]dioxino[2,3-b]pyridin-3-yl)-benzyl]-piperidine-4-carboxylic acid [(S)-1-(tetrahydro-furan-2-yl)methyl]-amide], the figures for the IC50 (on human LTA4 hydrolase (setting [2]); in assay [1]) were 0.19 nM and 55 nM, respectively.
For `CC(=O)NCCC(=O)N1CCN(Cc2ccc([C@H]3COc4cccnc4O3)cc2)CC1` [Example 288, N-[3-[4-[[4-[(3S)-2,3-dihydro-[1,4]dioxino[2,3-b]pyridin-3-yl]phenyl]methyl]piperazin-1-yl]-3-oxo-propyl]acetamide], in that order: 0.88 nM and 150 nM.
For the compound `O=C(CN1CCCC1=O)NC1CCN(Cc2ccc([C@H]3COc4cccnc4O3)cc2)CC1` [Example 289, N-[1-[[4-[(3S)-2,3-dihydro-[1,4]dioxino[2,3-b]pyridin-3-yl]phenyl]methyl]-4-piperidyl]-2-(2-oxopyrrolidin-1-yl)acetamide], the values for the IC50 (at human LTA4 hydrolase (setting [2]); in assay [1]) were 0.4 nM and 170 nM, respectively.
As to `O=C(NC1CCN(Cc2ccc([C@H]3COc4cccnc4O3)cc2)CC1)C1CCOCC1` [Example 290, N-[1-[[4-[(3S)-2,3-dihydro-[1,4]dioxino[2,3-b]pyridin-3-yl]phenyl]methyl]-4-piperidyl]tetrahydropyran-4-carboxamide], the IC50 at human LTA4 hydrolase (setting [2]) turned out to be 0.2 nM; in assay [1], 48 nM.
For `O=C1OCCCN1C1CCN(Cc2ccc([C@H]3COc4cccnc4O3)cc2)CC1` [Example 291, 3-{1-[(S)-4-(2,3-Dihydro-[1,4]dioxino[2,3-b]pyridin-3-yl)-benzyl]-piperidin-4-yl}-[1,3]oxazinan-2-one], in that order: 0.19 nM and 56 nM.
With `CC(=O)N1C[C@@H]2C[C@H]1CN2Cc1ccc([C@H]2COc3cccnc3O2)cc1` [Example 292, 1-{(1S,4S)-5-[(S)-4-(2,3-Dihydro-[1,4]dioxino[2,3-b]pyridin-3-yl)-benzyl]-2,5-diaza-bicyclo[2.2.1]hept-2-yl}-ethanone], the values for the IC50 (at human LTA4 hydrolase (setting [2]); in assay [1]) were 0.16 nM and 24 nM, respectively.
The matching figures for `c1cncc(OC2CCN(Cc3ccc([C@H]4COc5cccnc5O4)cc3)CC2)c1` [Example 293, (S)-3-{4-[4-(Pyridin-3-yloxy)-piperidin-1-ylmethyl]-phenyl}-2,3-dihydro-[1,4]dioxino[2,3-b]pyridine]: 0.24 nM and 52 nM.
With `O=C(O)C1(c2ccccc2)CCN(Cc2ccc([C@H]3COc4cccnc4O3)cc2)CC1` [Example 294, 1-[(S)-4-(2,3-Dihydro-[1,4]dioxino[2,3-b]pyridin-3-yl)-benzyl]-4-phenyl-piperidine-4-carboxylic acid], the IC50 against human LTA4 hydrolase was 5.8 nM; in assay [1] it was 1300 nM.
As to `[O-][S+]1CCN(Cc2ccc([C@H]3COc4cccnc4O3)cc2)CC1` [Example 295, (S)-3-[4-(1-Oxo-1lambda4-thiomorpholin-4-ylmethyl)-phenyl]-2,3-dihydro-[1,4]dioxino[2,3-b]pyridine], the 50% inhibitory concentration (IC50) on human LTA4 hydrolase (setting [2]) is 0.79 nM; in assay [1], 120 nM.
With `O=C1OC[C@@H]2CN(Cc3ccc([C@H]4COc5cccnc5O4)cc3)CCN12` [Example 296, (S)-7-[(S)-4-(2,3-Dihydro-[1,4]dioxino[2,3-b]pyridin-3-yl)-benzyl]-hexahydro-oxazolo[3,4-a]pyrazin-3-one], the IC50 on human LTA4 hydrolase (setting [2]) was 0.32 nM; in assay [1], 90 nM.
